Test results from ChEMBL document CHEMBL1201862, “PubChem BioAssay data set” (2004).
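1) Cells in 96-well plates. 2) Compound, 48 h, 5 concentrations. 3) Linear interpolation between surrounding doses. 4) Unreached endpoint = highest concentration. The concentration for 50% growth inhibition is given as GI50.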 Activity calls are given as the source filed them. Rule as the data show it: active = GI50 up to about 1.1 µM and inactive = higher.

Key:
Test in all cases: NCI anticancer screen, dose series, 48 h
[1] = test system: TK-10
[2] = test system: OVCAR-4
[3] = test system: Malme-3M
[4] = test system: SK-MEL-28
[5] = test system: SK-OV-3
[6] = test system: HOP-62
[7] = test system: NCI-H522
[8] = test system: HT-29
[9] = test system: COLO 205
[10] = test system: SNB-19
[11] = test system: NCI/ADR-RES
[12] = test system: MDA-MB-231
[13] = test system: SK-MEL-2
[14] = test system: UACC-257
[15] = test system: MDA-N
[16] = test system: HCC 2998
[17] = test system: A549
[18] = test system: HL-60
[19] = test system: DU-145
[20] = test system: K562
[21] = test system: M14
[22] = test system: RPMI-8226
[23] = test system: SNB-75
[24] = test system: UACC-62
[25] = test system: U-251
[26] = test system: OVCAR-8
[27] = test system: SK-MEL-5
[28] = test system: NCI-H460
[29] = test system: SW-620
[30] = test system: BT-549
[31] = test system: HCT-15
[32] = test system: NCI-H23
[33] = test system: ACHN
[34] = test system: IGROV-1
[35] = test system: HOP-92
[36] = test system: A498
[37] = test system: EKVX
[38] = test system: SF-268
[39] = test system: UO-31
[40] = test system: OVCAR-5
[41] = test system: Hs-578T
[42] = test system: CCRF-CEM
[43] = test system: PC-3
[44] = test system: KM12
[45] = test system: CAKI-1
[46] = test system: MOLT-4
[47] = test system: T47D
[48] = test system: RXF 393
[49] = test system: MCF7
[50] = test system: LOX IMVI
[51] = test system: HCT-116
[52] = test system: SN12C
[53] = test system: SF-295
[54] = test system: MDA-MB-435
[55] = test system: SR
[56] = test system: 786-0
[57] = test system: OVCAR-3
[58] = test system: SF-539
[59] = test system: NCI-H226

O=[N+]([O-])c1ccc(/C=N/CC2CCCN3CCCCC23)cc1 (centres undefined)
GI50 [1]: > 100 µM (inactive)
GI50 [2]: > 100 µM (inactive)
GI50 [3]: > 100 µM (inactive)
GI50 [4]: > 100 µM (inactive)
GI50 [5]: > 100 µM (inactive)
GI50 [6]: > 100 µM (inactive)
GI50 [7]: > 100 µM (inactive)
GI50 [8]: 16.9 µM (inactive)
GI50 [9]: 50.9 µM (inactive)
GI50 [10]: > 100 µM (inactive)
GI50 [11]: > 100 µM (inactive)
GI50 [12]: > 100 µM (inactive)
GI50 [13]: > 100 µM (inactive)
GI50 [14]: > 100 µM (inactive)
GI50 [15]: 34.9 µM (inactive)
GI50 [16]: 28.6 µM (inactive)
GI50 [17]: 36.2 µM (inactive)
GI50 [18]: 26.7 µM (inactive)
GI50 [19]: > 100 µM (inactive)
GI50 [20]: 19.5 µM (inactive)
GI50 [21]: 55 µM (inactive)
GI50 [22]: 17.3 µM (inactive)
GI50 [23]: 31.6 µM (inactive)
GI50 [24]: > 100 µM (inactive)
GI50 [25]: 40.6 µM (inactive)
GI50 [26]: 43.2 µM (inactive)
GI50 [27]: > 100 µM (inactive)
GI50 [28]: > 100 µM (inactive)
GI50 [29]: 32.2 µM (inactive)
GI50 [30]: > 100 µM (inactive)
GI50 [31]: 42.7 µM
GI50 [32]: > 100 µM (inactive)
GI50 [33]: > 100 µM (inactive)
GI50 [34]: > 100 µM (inactive)
GI50 [35]: > 100 µM (inactive)
GI50 [36]: > 100 µM (inactive)
GI50 [37]: > 100 µM (inactive)
GI50 [38]: > 100 µM (inactive)
GI50 [39]: 34.2 µM (inactive)
GI50 [40]: > 100 µM (inactive)
GI50 [41]: > 100 µM (inactive)
GI50 [42]: 40.8 µM (inactive)
GI50 [43]: > 100 µM (inactive)
GI50 [44]: 33.2 µM (inactive)
GI50 [45]: > 100 µM (inactive)
GI50 [46]: 22.9 µM (inactive)
GI50 [47]: > 100 µM (inactive)
GI50 [48]: 46 µM (inactive)
GI50 [49]: 24 µM (inactive)
GI50 [50]: 15.5 µM (inactive)
GI50 [51]: 58.6 µM (inactive)
GI50 [52]: > 100 µM (inactive)
GI50 [53]: > 100 µM (inactive)
GI50 [54]: 61.7 µM (inactive)
GI50 [55]: 4.22 µM (inactive)
GI50 [56]: 22.8 µM (inactive)

CC1=NN(c2cccc(S(=O)(=O)O)c2)C2(C1)SCC(=O)N2c1nc2ccccc2s1 (centres undefined)
GI50 [1]: > 100 µM (inactive)
GI50 [2]: > 100 µM (inactive)
GI50 [3]: > 100 µM (inactive)
GI50 [4]: > 100 µM (inactive)
GI50 [5]: > 100 µM (inactive)
GI50 [6]: > 100 µM (inactive)
GI50 [7]: > 100 µM (inactive)
GI50 [8]: > 100 µM (inactive)
GI50 [9]: > 100 µM (inactive)
GI50 [10]: > 100 µM (inactive)
GI50 [11]: > 100 µM (inactive)
GI50 [12]: > 100 µM (inactive)
GI50 [13]: > 100 µM (inactive)
GI50 [14]: > 100 µM (inactive)
GI50 [15]: > 100 µM (inactive)
GI50 [16]: > 100 µM (inactive)
GI50 [57]: 83.2 µM (inactive)
GI50 [58]: 17.6 µM (inactive)
GI50 [17]: > 100 µM (inactive)
GI50 [18]: 91.2 µM (inactive)
GI50 [19]: > 100 µM (inactive)
GI50 [20]: > 100 µM (inactive)
GI50 [21]: > 100 µM (inactive)
GI50 [22]: > 100 µM (inactive)
GI50 [23]: > 100 µM (inactive)
GI50 [59]: > 100 µM (inactive)
GI50 [24]: > 100 µM (inactive)
GI50 [25]: > 100 µM (inactive)
GI50 [26]: > 100 µM (inactive)
GI50 [27]: > 100 µM (inactive)
GI50 [28]: > 100 µM (inactive)
GI50 [29]: 9.1 µM (inactive)
GI50 [30]: > 100 µM (inactive)
GI50 [31]: > 100 µM
GI50 [32]: > 100 µM (inactive)
GI50 [33]: > 100 µM (inactive)
GI50 [34]: > 100 µM (inactive)
GI50 [35]: > 100 µM (inactive)
GI50 [36]: > 100 µM (inactive)
GI50 [37]: > 100 µM (inactive)
GI50 [38]: > 100 µM (inactive)
GI50 [39]: > 100 µM (inactive)
GI50 [40]: > 100 µM (inactive)
GI50 [41]: > 100 µM (inactive)
GI50 [43]: > 100 µM (inactive)
GI50 [44]: > 100 µM (inactive)
GI50 [45]: > 100 µM (inactive)
GI50 [46]: > 100 µM (inactive)
GI50 [47]: > 100 µM (inactive)
GI50 [48]: > 100 µM (inactive)
GI50 [49]: > 100 µM (inactive)
GI50 [50]: 88.9 µM (inactive)
GI50 [51]: > 100 µM (inactive)
GI50 [52]: > 100 µM (inactive)
GI50 [53]: > 100 µM (inactive)
GI50 [54]: > 100 µM (inactive)
GI50 [55]: 35.7 µM (inactive)
GI50 [56]: > 100 µM (inactive)

COC(=O)[C@@H]1C2OC(C)(C)OC2CN1C(=O)OCc1ccccc1 (some centres undefined)
GI50 [1]: > 100 µM (inactive)
GI50 [2]: > 100 µM (inactive)
GI50 [3]: > 100 µM (inactive)
GI50 [4]: > 100 µM (inactive)
GI50 [5]: > 100 µM (inactive)
GI50 [6]: > 100 µM (inactive)
GI50 [7]: > 100 µM (inactive)
GI50 [8]: > 100 µM (inactive)
GI50 [9]: > 100 µM (inactive)
GI50 [10]: > 100 µM (inactive)
GI50 [11]: > 100 µM (inactive)
GI50 [12]: > 100 µM (inactive)
GI50 [13]: > 100 µM (inactive)
GI50 [14]: > 100 µM (inactive)
GI50 [15]: > 100 µM (inactive)
GI50 [16]: > 100 µM (inactive)
GI50 [57]: > 100 µM (inactive)
GI50 [58]: > 100 µM (inactive)
GI50 [17]: > 100 µM (inactive)
GI50 [18]: > 100 µM (inactive)
GI50 [19]: > 100 µM (inactive)
GI50 [20]: > 100 µM (inactive)
GI50 [21]: > 100 µM (inactive)
GI50 [22]: > 100 µM (inactive)
GI50 [23]: 4.58 µM (inactive)
GI50 [59]: > 100 µM (inactive)
GI50 [24]: > 100 µM (inactive)
GI50 [25]: > 100 µM (inactive)
GI50 [26]: > 100 µM (inactive)
GI50 [27]: > 100 µM (inactive)
GI50 [28]: > 100 µM (inactive)
GI50 [29]: > 100 µM (inactive)
GI50 [30]: > 100 µM (inactive)
GI50 [31]: > 100 µM
GI50 [32]: > 100 µM (inactive)
GI50 [33]: > 100 µM (inactive)
GI50 [34]: > 100 µM (inactive)
GI50 [35]: > 100 µM (inactive)
GI50 [36]: > 100 µM (inactive)
GI50 [37]: > 100 µM (inactive)
GI50 [38]: > 100 µM (inactive)
GI50 [39]: > 100 µM (inactive)
GI50 [40]: > 100 µM (inactive)
GI50 [41]: > 100 µM (inactive)
GI50 [43]: > 100 µM (inactive)
GI50 [44]: > 100 µM (inactive)
GI50 [45]: > 100 µM (inactive)
GI50 [46]: > 100 µM (inactive)
GI50 [47]: > 100 µM (inactive)
GI50 [48]: > 100 µM (inactive)
GI50 [49]: > 100 µM (inactive)
GI50 [50]: > 100 µM (inactive)
GI50 [51]: > 100 µM (inactive)
GI50 [52]: > 100 µM (inactive)
GI50 [53]: > 100 µM (inactive)
GI50 [54]: > 100 µM (inactive)
GI50 [55]: > 100 µM (inactive)
GI50 [56]: > 100 µM (inactive)

COC(=O)[C@@H]1CS(=O)(=O)C(C(C)C)N1C(C)=O (some centres undefined)
GI50 [1]: > 100 µM (inactive)
GI50 [2]: > 100 µM (inactive)
GI50 [3]: > 100 µM (inactive)
GI50 [4]: > 100 µM (inactive)
GI50 [5]: > 100 µM (inactive)
GI50 [6]: > 100 µM (inactive)
GI50 [7]: > 100 µM (inactive)
GI50 [8]: > 100 µM (inactive)
GI50 [9]: > 100 µM (inactive)
GI50 [10]: > 100 µM (inactive)
GI50 [11]: > 100 µM (inactive)
GI50 [12]: > 100 µM (inactive)
GI50 [13]: > 100 µM (inactive)
GI50 [14]: > 100 µM (inactive)
GI50 [15]: > 100 µM (inactive)
GI50 [16]: > 100 µM (inactive)
GI50 [57]: > 100 µM (inactive)
GI50 [58]: > 100 µM (inactive)
GI50 [17]: > 100 µM (inactive)
GI50 [18]: 7.19 µM (inactive)
GI50 [19]: > 100 µM (inactive)
GI50 [20]: > 100 µM (inactive)
GI50 [21]: > 100 µM (inactive)
GI50 [22]: > 100 µM (inactive)
GI50 [23]: > 100 µM (inactive)
GI50 [59]: > 100 µM (inactive)
GI50 [24]: > 100 µM (inactive)
GI50 [25]: > 100 µM (inactive)
GI50 [26]: > 100 µM (inactive)
GI50 [27]: > 100 µM (inactive)
GI50 [28]: > 100 µM (inactive)
GI50 [29]: > 100 µM (inactive)
GI50 [30]: > 100 µM (inactive)
GI50 [31]: > 100 µM
GI50 [32]: > 100 µM (inactive)
GI50 [33]: > 100 µM (inactive)
GI50 [34]: > 100 µM (inactive)
GI50 [35]: > 100 µM (inactive)
GI50 [36]: > 100 µM (inactive)
GI50 [37]: > 100 µM (inactive)
GI50 [38]: > 100 µM (inactive)
GI50 [39]: > 100 µM (inactive)
GI50 [40]: > 100 µM (inactive)
GI50 [41]: > 100 µM (inactive)
GI50 [43]: > 100 µM (inactive)
GI50 [44]: > 100 µM (inactive)
GI50 [45]: > 100 µM (inactive)
GI50 [47]: > 100 µM (inactive)
GI50 [48]: > 100 µM (inactive)
GI50 [49]: > 100 µM (inactive)
GI50 [50]: > 100 µM (inactive)
GI50 [51]: > 100 µM (inactive)
GI50 [52]: > 100 µM (inactive)
GI50 [53]: > 100 µM (inactive)
GI50 [54]: > 100 µM (inactive)
GI50 [55]: > 100 µM (inactive)
GI50 [56]: > 100 µM (inactive)
